Tests used:
human CB2 receptor = molecular target: T1, human CB2 receptor (Homo sapiens, UniProt P34972); experiment: CB2 radioligand competitive binding assay ([3H]CP 55,940 displacement); conditions: for Selectivity CB2: fold difference in binding between CB1 and CB2, shown in column of receptor with higher affinity, 1.00 in both = about the same affinity
T1 construct: host or cells: CHO-K1 (Chinese hamster ovary) cells, stably transfected; membranes prepared in house
Description: Compounds of the present disclosure were tested for CB1 receptor binding affinity and for CB2 receptor binding affinity. As used herein, “binding affinity” is represented by the IC50 value, which was experimentally determined as described herein. The lower the IC50 value the higher the binding affinity.
The membranes were prepared from CHO-K1 (Chinese hamster ovary) cells stably transfected with the human CB2 receptor (Cat. #ES-111-C; Perkin Elmer, Boston, MA). The cells were grown adherently and maintained in Ham's F12 medium containing 10% fetal bovine serum (FBS), penicillin, streptomycin and geneticin (G418) at 37° C. in a humid atmosphere of 5% CO2 following the manufacturer's instructions.
For membrane preparation the cells were washed with PBS and scraped off the plates in cold homogenization buffer (25 mM HEPES (pH 7.4), 2 mM EDTA) containing protease inhibitor cocktail (Sigma Cat. #P8340). The cell suspension was homogenized with a Pro-PK-01200D Polytron Homogenizer (Pro Scientific) and then centrifuged for 30 min at 120,000×g. The supernatant was discarded and the pellet was re-suspended in the homogenization buffer and stored at −80° C. until the time of use.
In this experiment, 3H radiolabeled CP 55,940, i.e. [3H]CP 55,940 (Perkin Elmer, Boston, MA), was used as a radioligand for the CB2 receptor to determine the binding affinity of compounds for the CB2 receptor (Scheme 3; above).
The competition binding experiments (single dose and dose-response) were performed by incubating 0.6 nM of [3H]CP55,940 (specific activity 101 Ci/mmol, Perkin Elmer) and different concentrations of compounds disclosed herein with membranes prepared as above from CHO-K1 cells expressing human CB2 receptor (1 μg of protein/well), 50 mM Tris-HCl (pH 7.4), 5 mM MgCl2, 1 mM CaCl2, and 2 mg/mL BSA.
For the dose-response experiments the test compounds were sequentially diluted to provide the desired concentration range for the IC50 determination. In each case the compounds were pre-incubated with the membrane for 20 min, before adding the radioligand.
After incubation with the radioligand for 60 min at 37° C., the incubation was terminated by rapid filtration of assay mixture through MultiScreen®HTS^+ 96-well filter plates (Millipore, Cat. #MSFCNXB), pre-soaked for 60 min with 50 mM Tris-HCl (pH 7.4) containing 0.33% polyethylenimine (PEI). The nonspecific binding (NSB) was determined in the presence of 10 μM unlabelled CP55,940. After drying the filter plate at 50° C. for at least 60 min, the filter-bound radioactivity was determined by scintillation spectrometry using the 1450 MicroBeta Plate Counter (Perkin Elmer, Boston, MA).

human CB1 receptor = molecular target: T2, human CB1 receptor (Homo sapiens, UniProt P21554); experiment: CB1 radioligand competitive binding assay ([3H]CP 55,940 displacement); conditions: for Selectivity CB1: fold difference in binding between CB1 and CB2, shown in column of receptor with higher affinity, 1.00 in both = about the same affinity
T2 construct: host or cells: CHO-K1 (Chinese hamster ovary) cells, stably transfected; membranes prepared in house
T2 sequence (P21554 whole entry): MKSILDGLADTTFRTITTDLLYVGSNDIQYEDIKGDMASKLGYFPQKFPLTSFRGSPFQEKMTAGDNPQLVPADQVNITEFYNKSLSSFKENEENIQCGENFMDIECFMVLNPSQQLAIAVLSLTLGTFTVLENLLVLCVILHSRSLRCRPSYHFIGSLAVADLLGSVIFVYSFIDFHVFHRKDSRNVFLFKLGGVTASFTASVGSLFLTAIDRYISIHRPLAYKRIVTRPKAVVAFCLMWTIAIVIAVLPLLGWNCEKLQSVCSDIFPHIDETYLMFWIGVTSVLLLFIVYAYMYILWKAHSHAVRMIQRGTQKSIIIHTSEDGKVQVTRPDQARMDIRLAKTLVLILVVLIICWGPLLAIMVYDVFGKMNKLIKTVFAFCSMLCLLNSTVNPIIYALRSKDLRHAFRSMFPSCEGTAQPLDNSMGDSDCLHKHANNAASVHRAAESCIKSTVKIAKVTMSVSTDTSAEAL

T1 sequence (P34972 whole entry): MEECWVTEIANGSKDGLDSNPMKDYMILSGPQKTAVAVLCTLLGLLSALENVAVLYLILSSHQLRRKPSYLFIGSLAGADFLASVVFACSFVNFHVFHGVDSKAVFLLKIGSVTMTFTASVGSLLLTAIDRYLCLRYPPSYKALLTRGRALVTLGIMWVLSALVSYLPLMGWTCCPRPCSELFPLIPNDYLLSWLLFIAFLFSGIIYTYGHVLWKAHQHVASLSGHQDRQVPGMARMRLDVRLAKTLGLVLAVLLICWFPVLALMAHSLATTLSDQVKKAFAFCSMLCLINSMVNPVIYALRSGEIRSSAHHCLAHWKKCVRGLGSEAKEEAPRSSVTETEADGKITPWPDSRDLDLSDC

Row | Structure (SMILES) | IC50 (human CB2 receptor) [µM] | Selectivity CB2 (human CB2 receptor) [fold] | IC50 (human CB1 receptor) [µM] | Selectivity CB1 (human CB1 receptor) [fold]
1 | CCCc1c(CN(C)C(=O)OC)c(O)c(C2C=C(C)CCC2)c(O)c1CN(C)C(=O)OC (stereo not shown) [59′c, dimethyl ((2,6-dihydroxy-5′-methyl-4-propyl-1′,2′,3′,4′-tetrahydro-[1,1′-biphenyl]-3,5-diyl)bis(methylene))bis(methylcarbamate)] | 0.1 to 0.99 | 3.25 | 1 to 4.99 | 
2 | CCCCCc1cc(O)c(C2C=C(C)CCC2)c(O)c1C(=O)NC (stereo not shown) [Compound 1c, 2,6-dihydroxy-N,5′-dimethyl-4-pentyl-1′,2′,3′,4′-tetrahydro-[1,1′-biphenyl]-3-carboxamide] | 1 to 4.99 | 3.20 | > 5 | 
3 | C=C(C)[C@@H]1CCC(C)=C[C@H]1c1c(O)cc(CCCCC)c(C(=O)NC)c1O [Compound 1d, 2,6-dihydroxy-N,5′-dimethyl-4-pentyl-2′-(prop-1-en-2-yl)-1′,2′,3′,4′-tetrahydro-[1,1′-biphenyl]-3-carboxamide] | 0.1 to 0.99 | 1.26 | 1 to 4.99 | 
4 | C=C(C)[C@@H]1CCC(C)=C[C@H]1c1c(O)cc(CCCCC)c(C(=O)NCC)c1O [Compound 3d, N-ethyl-2,6-dihydroxy-5′-methyl-4-pentyl-2′-(prop-1-en-2-yl)-1′,2′,3′,4′-tetrahydro-[1,1′-biphenyl]-3-carboxamide] | 1 to 4.99 | 1.80 | 1 to 4.99 | 
5 | CCCCCc1cc(O)c(C2C=C(C)CCC2)c(O)c1C(=O)NC1CC1 (stereo not shown) [Compound 6c, N-cyclopropyl-2,6-dihydroxy-5′-methyl-4-pentyl-1′,2′,3′,4′-tetrahydro-[1,1′-biphenyl]-3-carboxamide] | < 0.1 | 40.14 | 1 to 4.99 | 
6 | C=C(C)[C@@H]1CCC(C)=C[C@H]1c1c(O)cc(CCCCC)c(C(=O)NC2CC2)c1O [Compound 6d, N-cyclopropyl-2,6-dihydroxy-5′-methyl-4-pentyl-2′-(prop-1-en-2-yl)-1′,2′,3′,4′-tetrahydro-[1,1′-biphenyl]-3-carboxamide] | 1 to 4.99 | 9.09 | > 5 | 
7 | CCCCCc1cc(O)c(C2C=C(C)CCC2)c(O)c1C(=O)NC1CCCC1 (stereo not shown) [Compound 7c, N-cyclopentyl-2,6-dihydroxy-5′-methyl-4-pentyl-1′,2′,3′,4′-tetrahydro-[1,1′-biphenyl]-3-carboxamide] | < 0.1 | 188.10 | 0.1 to 0.99 | 
8 | C=C(C)[C@@H]1CCC(C)=C[C@H]1c1c(O)cc(CCCCC)c(C(=O)Nc2ccc(OC)cc2)c1O [Compound 11d, 2,6-dihydroxy-N-(4-methoxyphenyl)-5′-methyl-4-pentyl-2′-(prop-1-en-2-yl)-1′,2′,3′,4′-tetrahydro-[1,1′-biphenyl]-3-carboxamide] | 0.1 to 0.99 | 3.11 | 1 to 4.99 | 
9 | CCCCCc1cc(O)c(C2C=C(C)CCC2)c(O)c1C(=O)NCc1ccccc1 (stereo not shown) [Compound 14c, N-benzyl-2,6-dihydroxy-5′-methyl-4-pentyl-1′,2′,3′,4′-tetrahydro-[1,1′-biphenyl]-3-carboxamide] | < 0.1 | 1300.00 | 1 to 4.99 | 
10 | C=C(C)C1CCC(C)=CC1c1c(O)cc(CCCCC)c(C(=O)NCc2ccccc2)c1O (stereo not shown) [Compound 14d, N-benzyl-2,6-dihydroxy-5′-methyl-4-pentyl-2′-(prop-1-en-2-yl)-1′,2′,3′,4′-tetrahydro-[1,1′-biphenyl]-3-carboxamide] | 1 to 4.99 | 13.50 | > 5 | 
11 | CCCCCc1cc(O)c(-c2cccc(C)c2)c(O)c1C(=O)NCc1cccnc1 [Compound 15a, 2,6-dihydroxy-3′-methyl-4-pentyl-N-(pyridin-3-ylmethyl)-[1,1′-biphenyl]-3-carboxamide] | 0.1 to 0.99 | 17.62 | > 5 | 
12 | CCCCCc1cc(O)c(C2C=C(C)CCC2)c(O)c1C(=O)NCc1cccnc1 (stereo not shown) [Compound 15c, 2,6-dihydroxy-5′-methyl-4-pentyl-N-(pyridin-3-ylmethyl)-1′,2′,3′,4′-tetrahydro-[1,1′-biphenyl]-3-carboxamide] | < 0.1 | 23.17 | 1 to 4.99 | 
13 | C=C(C)[C@@H]1CCC(C)=C[C@H]1c1c(O)cc(CCCCC)c(C(=O)NCc2cccnc2)c1O [Compound 15d, 2,6-dihydroxy-5′-methyl-4-pentyl-2′-(prop-1-en-2-yl)-N-(pyridin-3-ylmethyl)-1′,2′,3′,4′-tetrahydro-[1,1′-biphenyl]-3-carboxamide] | 0.1 to 0.99 |  | 0.1 to 0.99 | 2.48
14 | C=CCNC(=O)c1c(CCCCC)cc(O)c(C2C=C(C)CCC2)c1O (stereo not shown) [Compound 25c, N-allyl-2,6-dihydroxy-5′-methyl-4-pentyl-1′,2′,3′,4′-tetrahydro-[1,1′-biphenyl]-3-carboxamide] | 0.1 to 0.99 | 16.53 | 1 to 4.99 | 
15 | CCCCCc1cc(O)c(C2C=C(C)CCC2)c(O)c1C(=O)N1CCn2cnnc2C1 (stereo not shown) [Compound 34c, (5,6-dihydro-[1,2,4]triazolo[4,3-a]pyrazin-7(8H)-yl)(2,6-dihydroxy-5′-methyl-4-pentyl-1′,2′,3′,4′-tetrahydro-[1,1′-biphenyl]-3-yl)methanone] | > 5 | 1.00 | > 5 | 1.00
16 | CCCCCc1cc(O)c(C2C=C(C)CCC2)c(O)c1C(=O)N1CCN(S(C)(=O)=O)CC1 (stereo not shown) [Compound 37c, (2,6-dihydroxy-5′-methyl-4-pentyl-1′,2′,3′,4′-tetrahydro-[1,1′-biphenyl]-3-yl)(4-(methylsulfonyl)piperazin-1-yl)methanone] | 0.1 to 0.99 | 66.67 | > 5 | 
17 | CCCCCc1cc(O)c(-c2cccc(C)c2)c(O)c1C(=O)N1CCOCC1 [Compound 39a, (2,6-dihydroxy-3′-methyl-4-pentyl-[1,1′-biphenyl]-3-yl)(morpholino)methanone] | > 5 | 3.70 | > 5 | 
18 | CCCCCc1cc(O)c(C2C=C(C)CCC2)c(O)c1C(=O)N1CCOCC1 (stereo not shown) [Compound 39c, (2,6-dihydroxy-5′-methyl-4-pentyl-1′,2′,3′,4′-tetrahydro-[1,1′-biphenyl]-3-yl)(morpholino)methanone] | 1 to 4.99 | 3.20 | 1 to 4.99 | 
19 | C=C(C)[C@@H]1CCC(C)=C[C@H]1c1c(O)cc(CCCCC)c(C(=O)N2CCOCC2)c1O [Compound 39d, (2,6-dihydroxy-5′-methyl-4-pentyl-2′-(prop-1-en-2-yl)-1′,2′,3′,4′-tetrahydro-[1,1′-biphenyl]-3-yl)(morpholino)methanone] | 1 to 4.99 | 3.49 | > 5 | 
20 | CCCCCc1cc(O)c(C2C=C(C)CCC2)c(O)c1C(=O)N1CCCC1 (stereo not shown) [Compound 41c, (2,6-dihydroxy-5′-methyl-4-pentyl-1′,2′,3′,4′-tetrahydro-[1,1′-biphenyl]-3-yl)(pyrrolidin-1-yl)methanone] | 1 to 4.99 | 13.31 | > 5 | 
21 | CCCCCc1cc(O)c(C2C=C(C)CCC2)c(O)c1C(=O)NCc1ccccc1Br (stereo not shown) [Compound 57c, N-(2-bromobenzyl)-2,6-dihydroxy-5′-methyl-4-pentyl-1′,2′,3′,4′-tetrahydro-[1,1′-biphenyl]-3-carboxamide] | < 0.1 | 21.67 | 1 to 4.99 | 
22 | CCCCCc1cc(O)c(C2C=C(C)CCC2)c(O)c1C(N)=O (stereo not shown) [Compound 58c, 2,6-dihydroxy-5′-methyl-4-pentyl-1′,2′,3′,4′-tetrahydro-[1,1′-biphenyl]-3-carboxamide] | 1 to 4.99 | 11.83 | > 5 | 
23 | CCCCCc1cc(O)c(-c2cccc(C)c2)c(O)c1CN(C)C(=O)OC [Compound 59a, methyl ((2,6-dihydroxy-3′-methyl-4-pentyl-[1,1′-biphenyl]-3-yl)methyl)(methyl)carbamate] | < 0.1 | 10.91 | 0.1 to 0.99 | 
